Data as given in ChEMBL document CHEMBL6114979, “Discovery of 3-indolylbenzoquinone derivatives with therapeutic potential for breast cancer” (Bioorg Med Chem, 2025).
In brackets after ≈: the same amount, converted by molar mass. Structures can show the parent of a compound that is named as a salt.

Columns and labels:
[1] = Toxicity in female Balb/c mouse implanted with mouse 4T1 cells assessed as appearance of tumor metastasis in kidney at 10 mg/kg, ip administered once every 2 days for 14 days by H and E staining based analysis; assay type: organism-based; settings: in vivo, 336 h, time 14 day
[2] = Toxicity in female Balb/c mouse implanted with mouse 4T1 cells assessed as appearance of infiltered tumor cells in adipose tissue at 10 mg/kg, ip administered once every 2 days for 14 days by H and E staining based analysis; assay type: organism-based; settings: in vivo, 336 h, time 14 day
[3] = Toxicity in female Balb/c mouse implanted with mouse 4T1 cells assessed as appearance of spleen wrinkling at 10 mg/kg, ip administered once every 2 days for 14 days; assay type: organism-based; settings: in vivo, 48 h, time 2 day
[4] = Toxicity in female Balb/c mouse implanted with mouse 4T1 cells assessed as appearance of irregular necrotic foci in tumor area at 10 mg/kg, ip administered once every 2 days for 14 days by H and E staining based analysis; assay type: organism-based; settings: in vivo, 336 h, time 14 day
A549 = test: Antiproliferative activity against human A549 cells assessed as inhibition of cell proliferation incubated for 48 hrs by CCK-8 assay; assay type: functional, cell-based; settings: A549, 48 h
[5] = Toxicity in female Balb/c mouse implanted with mouse 4T1 cells assessed as appearance of tumor metastasis in spleen at 10 mg/kg, ip administered once every 2 days for 14 days by H and E staining based analysis; assay type: organism-based; settings: in vivo, 336 h, time 14 day
MDA-MB-231 [6] = test: Antiproliferative activity against human MDA-MB-231 cells assessed as inhibition of cell proliferation incubated for 48 hrs by CCK-8 assay; assay type: functional, cell-based; settings: MDA-MB-231, 48 h
[7] = Toxicity in female Balb/c mouse implanted with mouse 4T1 cells assessed as change in body weight at 10 mg/kg, ip administered every 2 days; assay type: organism-based; settings: in vivo, 48 h
[8] = Toxicity in female Balb/c mouse implanted with mouse 4T1 cells assessed as appearance of tumor metastasis in lung at 10 mg/kg, ip administered once every 2 days for 14 days by H and E staining based analysis; assay type: organism-based; settings: in vivo, 336 h, time 14 day
[9] = Toxicity in female Balb/c mouse implanted with mouse 4T1 cells assessed as appearance of tumor metastasis in liver at 10 mg/kg, ip administered once every 2 days for 14 days by H and E staining based analysis; assay type: organism-based; settings: in vivo, 336 h, time 14 day
MDA-MB-231 [10] = test: Induction of cell cycle arrest in human MDA-MB-231 cells assessed as accumulation of cells at G0/G1 phase at 1 uM incubated for 24 hrs by PI staining based flow cytometric analysis (reference value: 57.31%); assay type: functional
MDA-MB-231 [11] = test: Induction of apoptosis in human MDA-MB-231 cells assessed as early apoptotic cells at 1 uM incubated for 24 hrs by Annexin-V/PI staining based flow cytometric analysis (reference value: 2.69%); assay type: functional
MDA-MB-231 [12] = test: Induction of cell cycle arrest in human MDA-MB-231 cells assessed as accumulation of cells at G2/M phase at 1 uM incubated for 24 hrs by PI staining based flow cytometric analysis (reference value: 33.98%); assay type: functional
MDA-MB-231 [13] = test: Induction of apoptosis in human MDA-MB-231 cells assessed as late apoptotic cells at 1 uM incubated for 24 hrs by Annexin-V/PI staining based flow cytometric analysis (reference value: 3.24%); assay type: functional
MDA-MB-231 [14] = test: Induction of apoptosis in human MDA-MB-231 cells assessed as viable cells at 1 uM incubated for 24 hrs by Annexin-V/PI staining based flow cytometric analysis (reference value: 93.37%); assay type: functional; settings: read-out: Activity
MDA-MB-231 [15] = test: Induction of cell cycle arrest in human MDA-MB-231 cells assessed as accumulation of cells at S phase at 1 uM incubated for 24 hrs by PI staining based flow cytometric analysis (reference value: 8.71%); assay type: functional
MDA-MB-231 [16] = test: Induction of apoptosis in human MDA-MB-231 cells assessed as necrotic cells at 1 uM incubated for 24 hrs by Annexin-V/PI staining based flow cytometric analysis (reference value: 0.71%); assay type: functional
HepG2 = test: Antiproliferative activity against human HepG2 cells assessed as inhibition of cell proliferation incubated for 48 hrs by CCK-8 assay; assay type: functional, cell-based; settings: HepG2, 48 h
[17] = Solubility of compound in 0.1 M HCL; assay type: physicochemical
[18] = Solubility of compound in water; assay type: physicochemical

IC50 (A549) [µM]	IC50 (MDA-MB-231 [6]) [µM]	IC50 (HepG2) [µM]	Structure (SMILES)	other results
0.3	2.34	–	COc1cccc2c1C(=O)c1c(O)c3c(c(O)c1C2=O)C[C@@](O)(C(=O)CO)C[C@@H]3O[C@H]1C[C@H](N)[C@H](O)[C@H](C)O1 [DOXORUBICIN HYDROCHLORIDE]	Activity [1]: Toxic; Activity [2]: Toxic; Activity [3]: Toxic; Activity [4]: Toxic; Activity [5]: Toxic; Activity [7]: Toxic; Activity [8]: Toxic; Activity [9]: Toxic
–	–	–	COc1ccc(/C=C\c2cc(OC)c(OC)c(OC)c2)cc1O [COMBRETASTATIN A4]	Activity (MDA-MB-231 [10]): 39.37%; Activity (MDA-MB-231 [11]): 10.22%; Activity (MDA-MB-231 [12]): 55.89%; Activity (MDA-MB-231 [13]): 8.43%; viability at 1 µM (MDA-MB-231 [14]): 79.8%; Activity (MDA-MB-231 [15]): 9.19%; Activity (MDA-MB-231 [16]): 1.55%
4.46	7.96	10.5	Cc1[nH]c2ccccc2c1C1=C(F)C(=O)C(F)=C(NC2CC2)C1=O	–
–	–	–	Cc1[nH]c2ccccc2c1C1=C(Cl)C(=O)C(Cl)=C(N2CCOCC2)C1=O	solubility [17]: 6 µg/mL (≈ 15.3 µM); solubility [18]: 9 µg/mL (≈ 23 µM)
14.2	8.57	12.4	Cc1[nH]c2ccccc2c1C1=C(F)C(=O)C(F)=C(F)C1=O	–
6.31	6.47	25	COC(=O)/C=C/C(=O)OCCNC1=C(F)C(=O)C(c2c(C)[nH]c3ccccc23)=C(F)C1=O	–
6.79	6.97	4.6	COC(=O)/C=C/C(=O)OCCCN1CCN(C2=C(F)C(=O)C(F)=C(c3c(C)[nH]c4ccccc34)C2=O)CC1	–
10.8	> 100	11.3	Cc1[nH]c2ccccc2c1C1=C(N2CCOCC2)C(=O)C(c2c(C)[nH]c3ccccc23)=C(N2CCOCC2)C1=O	–
15.7	10.8	11.3	Cc1[nH]c2ccccc2c1C1=C(F)C(=O)C(c2c(C)[nH]c3ccccc23)=C(F)C1=O	–
14.2	4.27	7.78	Cc1[nH]c2ccccc2c1C1=C(F)C(=O)C(N2CCOCC2)=C(F)C1=O	–
5.21	15.5	14.2	C#CCNC1=C(F)C(=O)C(NCC#C)=C(c2c(C)[nH]c3ccccc23)C1=O	–
> 100	13.5	61.4	COC(=O)/C=C/C(=O)OCCCN1CCN(C2=C(F)C(=O)C(c3c(C)[nH]c4ccccc34)=C(N3CCN(CCCOC(=O)/C=C/C(=O)OC)CC3)C2=O)CC1	–
53.1	8	5.43	Cc1[nH]c2ccccc2c1C1=C(F)C(=O)C(F)=C(N2CCN(C=O)CC2)C1=O	–
> 100	7.82	50.6	C#CCNC1=C(F)C(=O)C(c2c(C)[nH]c3ccccc23)=C(F)C1=O	–
4.93	5.49	4.19	Cc1[nH]c2ccccc2c1C1=C(NC2CC2)C(=O)C(F)=C(NC2CC2)C1=O	–
> 100	6.14	6.43	C#CCNC1=C(F)C(=O)C(F)=C(c2c(C)[nH]c3ccccc23)C1=O	–
6.8	4.41	4.22	Cc1[nH]c2ccccc2c1C1=C(N2CCCCC2)C(=O)C(F)=C(N2CCCCC2)C1=O	–
12.5	4.65	8.15	Cc1[nH]c2ccccc2c1C1=C(F)C(=O)C(F)=C(N2CCNCC2)C1=O	–
32.9	8.26	14.5	Cc1[nH]c2ccccc2c1C1=C(F)C(=O)C(F)=C(N2CCCCC2)C1=O	–
12.1	7.4	8.13	Cc1[nH]c2ccccc2c1C1=C(N2CCN(C=O)CC2)C(=O)C(F)=C(N2CCN(C=O)CC2)C1=O	–
10.2	8.9	12.4	Cc1[nH]c2ccccc2c1C1=C(F)C(=O)C(c2c(C)[nH]c3ccccc23)=C(N2CCOCC2)C1=O	–
13.8	10.2	13.1	Cc1[nH]c2ccccc2c1C1=C(NCCNC(=O)OC(C)(C)C)C(=O)C(F)=C(NCCNC(=O)OC(C)(C)C)C1=O	–
7.02	12	4.44	COC(=O)/C=C/OCCNC1=C(F)C(=O)C(c2c(C)[nH]c3ccccc23)=C(NCCOC(=O)/C=C/C(=O)OC)C1=O	–
4.76	7.18	4.91	Cc1[nH]c2ccccc2c1C1=C(F)C(=O)C(F)=C(NCCNC(=O)OC(C)(C)C)C1=O	–
15.4	8.16	16.1	Cc1[nH]c2ccccc2c1C1=C(N2CCOCC2)C(=O)C(F)=C(N2CCOCC2)C1=O	–
